Reference: ChEMBL document CHEMBL1201862, “PubChem BioAssay data set” (2004)
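Growth conditions: 96-well plates. Treatment: test compound, 48 hours, 5 concentrations. Analysis: linear interpolation between bracketing concentrations; unreached endpoints set to highest concentration. GI50: concentration for 50% inhibition of growth.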 The source made the active and inactive calls. No stated cut-off is given here; in the data, active = GI50 up to about 1.1 µM and inactive = higher.

Assays:
Assay in all cases: DTP human tumour cell line panel, 48 h
A498 = tested on: A498
A549 = tested on: A549
CCRF-CEM = tested on: CCRF-CEM
COLO 205 = tested on: COLO 205
HL-60 = tested on: HL-60
LOX IMVI = tested on: LOX IMVI
MDA-MB-435 = tested on: MDA-MB-435
NCI-H226 = tested on: NCI-H226
NCI-H23 = tested on: NCI-H23
NCI-H522 = tested on: NCI-H522
OVCAR-3 = tested on: OVCAR-3
OVCAR-4 = tested on: OVCAR-4
OVCAR-8 = tested on: OVCAR-8
RPMI-8226 = tested on: RPMI-8226
RXF 393 = tested on: RXF 393
SF-539 = tested on: SF-539
SN12C = tested on: SN12C
SW-620 = tested on: SW-620
UACC-257 = tested on: UACC-257
SK-MEL-2 = tested on: SK-MEL-2

SMILES | GI50 (A498) | GI50 (A549) | GI50 (CCRF-CEM) | GI50 (COLO 205) | GI50 (HL-60) | GI50 (LOX IMVI) | GI50 (MDA-MB-435) | GI50 (NCI-H226) | GI50 (NCI-H23) | GI50 (NCI-H522) | GI50 (OVCAR-3) | GI50 (OVCAR-4) | GI50 (OVCAR-8) | GI50 (RPMI-8226) | GI50 (RXF 393) | GI50 (SF-539) | GI50 (SN12C) | GI50 (SW-620) | GI50 (UACC-257) | GI50 (SK-MEL-2)
CN(C)Cc1cc(C=O)cc(CN(C)C)c1O | > 100 µM (inactive) | > 100 µM (inactive) | > 100 µM (inactive) | > 100 µM (inactive) | > 100 µM (inactive) | > 100 µM (inactive) | > 100 µM (inactive) | > 100 µM (inactive) | 26.1 µM (inactive) | > 100 µM (inactive) | > 100 µM (inactive) | > 100 µM (inactive) | > 100 µM (inactive) | > 100 µM (inactive) | > 100 µM (inactive) | > 100 µM (inactive) | > 100 µM (inactive) | > 100 µM (inactive) | > 100 µM (inactive) | 
OC1(c2ccccc2)c2ccccc2N=C2NCCN21 (stereo unspecified) | 86.5 µM (inactive) | > 100 µM (inactive) |  | 32.9 µM (inactive) | 44.1 µM (inactive) | 23.4 µM (inactive) | > 100 µM (inactive) | > 100 µM (inactive) | 60 µM (inactive) | > 100 µM (inactive) | > 100 µM (inactive) | > 100 µM (inactive) | > 100 µM (inactive) | 11.1 µM (inactive) | 82.6 µM (inactive) | > 100 µM (inactive) | 82.8 µM (inactive) | 84.7 µM (inactive) | 31.1 µM (inactive) | > 100 µM (inactive)
CSc1nc(-c2cc3c(c(SC)n2)CCC3)cc2c1CCC2 | > 100 µM (inactive) | > 100 µM (inactive) | > 100 µM (inactive) | > 100 µM (inactive) | > 100 µM (inactive) |  | > 100 µM (inactive) | > 100 µM (inactive) | > 100 µM (inactive) | > 100 µM (inactive) | > 100 µM (inactive) | > 100 µM (inactive) | > 100 µM (inactive) | > 100 µM (inactive) | > 100 µM (inactive) | > 100 µM (inactive) | > 100 µM (inactive) | > 100 µM (inactive) | > 100 µM (inactive) | > 100 µM (inactive)
COc1ccc(C2CCc3nc4nc(N)nc(N)c4cc3C2)cc1 (stereo unspecified) | 22.2 µM (inactive) | 39.3 µM (inactive) |  | 40.3 µM (inactive) | 54 µM (inactive) | 12.1 µM (inactive) | 27.4 µM (inactive) | 49.4 µM (inactive) |  | 25.4 µM (inactive) | 17.3 µM (inactive) | 22.8 µM (inactive) | 10.2 µM (inactive) | 32.6 µM (inactive) | 16.3 µM (inactive) | 12.4 µM (inactive) | 6.7 µM (inactive) | 36.6 µM (inactive) | > 100 µM (inactive) | 18.9 µM (inactive)
O=S(=O)(O)c1ccc(-c2nnc(-c3ccccn3)nc2-c2ccc(S(=O)(=O)O)o2)o1 | > 100 µM (inactive) | > 100 µM (inactive) |  | > 100 µM (inactive) | 0.329 µM (active) | > 100 µM (inactive) | > 100 µM (inactive) | > 100 µM (inactive) | > 100 µM (inactive) | > 100 µM (inactive) | > 100 µM (inactive) | > 100 µM (inactive) | > 100 µM (inactive) | > 100 µM (inactive) | > 100 µM (inactive) | > 100 µM (inactive) | > 100 µM (inactive) | > 100 µM (inactive) |  | > 100 µM (inactive)
CC(=O)OC1CN2CCC1CC2 (stereo unspecified) [ACECLIDINE] | 3.45 µM (inactive) | > 100 µM (inactive) | > 100 µM (inactive) | > 100 µM (inactive) | > 100 µM (inactive) | > 100 µM (inactive) | > 100 µM (inactive) | > 100 µM (inactive) | > 100 µM (inactive) | > 100 µM (inactive) | > 100 µM (inactive) | > 100 µM (inactive) | > 100 µM (inactive) | > 100 µM (inactive) | > 100 µM (inactive) | > 100 µM (inactive) | > 100 µM (inactive) | > 100 µM (inactive) | > 100 µM (inactive) | 
CC(C)[C@]12O[C@H]1[C@@H]1O[C@@]13[C@@]1(C)CCC4=C(COC4=O)[C@@H]1C[C@@H]1O[C@@]13C2=O [TRIPTONIDE] | 0.0178 µM (active) | 0.0384 µM (active) | 0.063 µM (active) | < 0.0113 µM (active) | < 0.01 µM (active) | < 0.01 µM (active) | 0.0103 µM (active) | < 0.0193 µM (active) | < 0.01 µM (active) | < 0.0186 µM (active) | < 0.0133 µM (active) | < 0.01 µM (active) | 0.0339 µM (active) | < 0.01 µM (active) | < 0.01 µM (active) | 0.0171 µM (active) | < 0.0172 µM (active) |  | < 0.0164 µM (active) | 0.0119 µM (active)
